According to patent US20250041429A1, “COMPOUND HAVING BTK PROTEIN DEGRADATION ACTIVITY, AND MEDICAL USES THEREOF” (UBIX THERAPEUTICS, INC., priority 2021, published 2025):

Target: T1, BTK protein (Homo sapiens, UniProt Q06187)
T1 construct: endogenous in cells; host or cells: TMD-8 cells
Assay: Measurement of BTK protein degradation ability in TMD-8 cells (Western blotting)
Assay type: cell-based
Conditions: harvested after 24 hours; for BTK degradation (%) 1 nM: compound 1 nM; for BTK degradation (%) 10 nM: compound 10 nM; for BTK degradation (%) 100 nM: compound 100 nM
How it was run: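 BTK levels were measured by immunoblotting of equal-protein RIPA lysates, normalized to GAPDH or β-actin, with chemiluminescent or infrared detection. Lysates came from TMD-8 cells exposed to compound for 24 h at final concentrations of 0.1, 1, 10 μM or 0.0001–0.1 μM, against a DMSO control.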

T1 sequence (Q06187 whole entry): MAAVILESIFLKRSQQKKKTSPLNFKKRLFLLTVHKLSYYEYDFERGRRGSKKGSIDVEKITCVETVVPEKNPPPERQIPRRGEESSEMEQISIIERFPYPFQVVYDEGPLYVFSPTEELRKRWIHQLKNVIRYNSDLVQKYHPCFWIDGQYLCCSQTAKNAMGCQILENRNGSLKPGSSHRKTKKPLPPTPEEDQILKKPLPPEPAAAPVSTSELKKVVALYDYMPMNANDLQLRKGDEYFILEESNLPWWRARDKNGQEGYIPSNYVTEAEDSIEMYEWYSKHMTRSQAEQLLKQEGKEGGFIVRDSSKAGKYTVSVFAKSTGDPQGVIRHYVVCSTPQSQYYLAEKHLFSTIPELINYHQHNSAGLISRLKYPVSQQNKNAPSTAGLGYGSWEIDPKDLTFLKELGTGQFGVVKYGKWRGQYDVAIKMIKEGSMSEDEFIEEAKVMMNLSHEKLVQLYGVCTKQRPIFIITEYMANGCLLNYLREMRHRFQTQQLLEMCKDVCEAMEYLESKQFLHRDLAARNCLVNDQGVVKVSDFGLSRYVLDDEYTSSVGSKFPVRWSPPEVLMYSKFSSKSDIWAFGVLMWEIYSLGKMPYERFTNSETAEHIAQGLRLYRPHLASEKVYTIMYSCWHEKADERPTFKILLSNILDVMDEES

Row | Compound | BTK degradation (%) 1 nM [%] | BTK degradation (%) 10 nM [%] | BTK degradation (%) 100 nM [%]
1 | Cc1cc(-c2ccnc(Nc3ccc(N4CCC(CN5CCN(c6ccc(NC7CCC(=O)NC7=O)cn6)CC5)CC4)cc3)n2)ccc1CNC(=O)N1CC(OC(C)C)C1 (stereo not drawn) [Example 127, N-(4-(2-((4-(4-((4-(5-((2,6-dioxopiperidin-3-yl)amino)pyridin-2-yl)piperazin-1-yl)methyl)piperidin-1-yl)phenyl)amino)pyrimidin-4-yl)-2-methylbenzyl)-3-isopropoxyazetidine-1-carboxamide] | 43.3 | 94.0 | 99.3
2 | Cc1cc(-c2ccnc(Nc3ccc(N4CCC(CN5CCC(c6ccc(NC7CCC(=O)NC7=O)cn6)CC5)CC4)cc3)n2)ccc1CNC(=O)c1cnn(C(C)C)c1 (stereo not drawn) [Example 128, N-(4-(2-((4-(4-((4-(5-((2,6-dioxopiperidin-3-yl)amino)pyridin-2-yl)piperidin-1-yl)methyl)piperidin-1-yl)phenyl)amino)pyrimidin-4-yl)-2-methylbenzyl)-1-isopropyl-1H-pyrazole-4-carboxamide] | 51.5 | 94.5 | 99.0
3 | Cc1cc(-c2ccnc(Nc3ccc(N4CCC(CN5CCN(c6ccc(NC7CCC(=O)NC7=O)cn6)CC5)CC4)cc3)n2)ccc1CNC(=O)c1cnn(C(C)C)c1 (stereo not drawn) [Example 129, N-(4-(2-((4-(4-((4-(5-((2,6-dioxopiperidin-3-yl)amino)pyridin-2-yl)piperazin-1-yl)methyl)piperidin-1-yl)phenyl)amino)pyrimidin-4-yl)-2-methylbenzyl)-1-isopropyl-1H-pyrazole-4-carboxamide] | 49.0 | 95.5 | 100.0
4 | Cc1cc(-c2ccnc(Nc3ccc(N4CCC(CN5CCC(c6ccc(NC7CCC(=O)NC7=O)cn6)CC5)CC4)cc3)n2)ccc1CNC(=O)c1cnn(C(C)(C)C)c1 (stereo not drawn) [Example 130, 1-(tert-butyl)-N-(4-(2-((4-(4-((4-(5-((2,6-dioxopiperidin-3-yl)amino)pyridin-2-yl)piperidin-1-yl)methyl)piperidin-1-yl)phenyl)amino)pyrimidin-4-yl)-2-methylbenzyl)-1H-pyrazole-4-carboxamide] | 56.5 | 95.0 | 99.5
5 | Cc1cc(-c2ccnc(Nc3ccc(N4CCC(CN5CCN(c6ccc(NC7CCC(=O)NC7=O)cn6)CC5)CC4)cc3)n2)ccc1CNC(=O)c1cnn(C(C)(C)C)c1 (stereo not drawn) [Example 131, 1-(tert-butyl)-N-(4-(2-((4-(4-((4-(5-((2,6-dioxopiperidin-3-yl)amino)pyridin-2-yl)piperazin-1-yl)methyl)piperidin-1-yl)phenyl)amino)pyrimidin-4-yl)-2-methylbenzyl)-1H-pyrazole-4-carboxamide] | 59.5 | 96.0 | 100.0
6 | Cc1cc(-c2ccnc(Nc3ccc(N4CCC(CN5CCC(c6ccc(NC7CCC(=O)NC7=O)cn6)CC5)CC4)cc3)n2)ccc1CNC(=O)c1cn(C(C)(C)C)nn1 (stereo not drawn) [Example 132, 1-(tert-butyl)-N-(4-(2-((4-(4-((4-(5-((2,6-dioxopiperidin-3-yl)amino)pyridin-2-yl)piperidin-1-yl)methyl)piperidin-1-yl)phenyl)amino)pyrimidin-4-yl)-2-methylbenzyl)-1H-1,2,3-triazole-4-carboxamide] | 54.5 | 95.5 | 100.0
7 | Cc1cc(-c2ccnc(Nc3ccc(N4CCC(CN5CCN(c6ccc(NC7CCC(=O)NC7=O)cn6)CC5)CC4)cc3)n2)ccc1CNC(=O)c1cn(C(C)(C)C)nn1 (stereo not drawn) [Example 133, 1-(tert-butyl)-N-(4-(2-((4-(4-((4-(5-((2,6-dioxopiperidin-3-yl)amino)pyridin-2-yl)piperazin-1-yl)methyl)piperidin-1-yl)phenyl)amino)pyrimidin-4-yl)-2-methylbenzyl)-1H-1,2,3-triazole-4-carboxamide] | 60.5 | 96.5 | 100.0
8 | Cc1cc(-c2ccnc(Nc3ccc(N4CCC(CN5CCC(c6ccc(NC7CCC(=O)NC7=O)cc6)CC5)CC4)cc3)n2)ccc1CNC(=O)c1cnn(C(C)C)c1 (stereo not drawn) [Example 134, N-(4-(2-((4-(4-((4-(4-((2,6-dioxopiperidin-3-yl)amino)phenyl)piperidin-1-yl)methyl)piperidin-1-yl)phenyl)amino)pyrimidin-4-yl)-2-methylbenzyl)-1-isopropyl-1H-pyrazole-4-carboxamide] | 58.5 | 93.5 | 98.5
9 | Cc1cc(-c2ccnc(Nc3ccc(N4CCC(CN5CCC(c6ccc(NC7CCC(=O)NC7=O)cc6)CC5)CC4)cc3)n2)ccc1CNC(=O)c1cnn(C(C)(C)C)c1 (stereo not drawn) [Example 135, 1-(tert-butyl)-N-(4-(2-((4-(4-((4-(4-((2,6-dioxopiperidin-3-yl)amino)phenyl)piperidin-1-yl)methyl)piperidin-1-yl)phenyl)amino)pyrimidin-4-yl)-2-methylbenzyl)-1H-pyrazole-4-carboxamide] | 59.0 | 94.5 | 99.0
10 | Cc1cc(-c2ccnc(Nc3ccc(N4CCC(CN5CCC(c6ccc(NC7CCC(=O)NC7=O)cc6)CC5)CC4)cc3)n2)ccc1CNC(=O)c1cn(C(C)(C)C)nn1 (stereo not drawn) [Example 136, 1-(tert-butyl)-N-(4-(2-((4-(4-((4-(4-((2,6-dioxopiperidin-3-yl)amino)phenyl)piperidin-1-yl)methyl)piperidin-1-yl)phenyl)amino)pyrimidin-4-yl)-2-methylbenzyl)-1H-1,2,3-triazole-4-carboxamide] | 71.0 | 95.5 | 98.5
11 | Cc1cc(-c2ccnc(Nc3ccc(N4CCC(CN5CCC(c6ccc(NC7CCC(=O)NC7=O)cc6)CC5)CC4)cc3)n2)cnc1CNC(=O)c1cn(C(C)(C)C)nn1 (stereo not drawn) [Example 137, 1-(tert-butyl)-N-((5-(2-((4-(4-((4-(4-((2,6-dioxopiperidin-3-yl)amino)phenyl)piperidin-1-yl)methyl)piperidin-1-yl)phenyl)amino)pyrimidin-4-yl)-3-methylpyridin-2-yl)methyl)-1H-1,2,3-triazole-4-carboxamide] | 25.0 | 81.5 | 97.0

The remaining lines, values ahead:

Row | BTK degradation (%) 1 nM [%] | BTK degradation (%) 10 nM [%] | BTK degradation (%) 100 nM [%] | Compound
12 | 15.5 | 71.5 | 90.0 | Cc1cc(-c2ccnc(Nc3ccc(N4CCC(CN5CCC(c6cccc(N7CCC(=O)NC7=O)c6)CC5)CC4)cc3)n2)ccc1CNC(=O)c1cn(C(C)(C)C)nn1 [Example 138, 1-(tert-butyl)-N-(4-(2-((4-(4-((4-(3-(2,4-dioxotetrahydropyrimidin-1 (2H)-yl)phenyl)piperidin-1-yl)methyl)piperidin-1-yl)phenyl)amino)pyrimidin-4-yl)-2-methylbenzyl)-1H-1,2,3-triazole-4-carboxamide]
13 | 15.5 | 68.0 | 95.0 | Cc1cc(-c2ccnc(Nc3ccc(N4CCC(CN5CCC(c6ccc(N7CCC(=O)NC7=O)cc6)CC5)CC4)cc3)n2)ccc1CNC(=O)c1cn(C(C)(C)C)nn1 [Example 139, 1-(tert-butyl)-N-(4-(2-((4-(4-((4-(4-(2,4-dioxotetrahydropyrimidin-1 (2H)-yl)phenyl)piperidin-1-yl)methyl)piperidin-1-yl)phenyl)amino)pyrimidin-4-yl)-2-methylbenzyl)-1H-1,2,3-triazole-4-carboxamide]
14 | 0.5 | 10.5 | 77.0 | Cc1cc(-c2ccnc(Nc3ccc(CN4CCC(CN5CCC(c6cccc(N7CCC(=O)NC7=O)c6)CC5)CC4)cc3)n2)ccc1CNC(=O)c1cn(C(C)(C)C)nn1 [Example 140]
15 | 15.0 | 70.5 | 96.5 | Cc1cc(-c2ccnc(Nc3ccc(CN4CCC(CN5CCC(c6ccc(N7CCC(=O)NC7=O)cc6)CC5)CC4)cc3)n2)ccc1CNC(=O)c1cn(C(C)(C)C)nn1 [Example 141, 1-(tert-butyl)-N-(4-(2-((4-((4-((4-(4-(2,4-dioxotetrahydropyrimidin-1 (2H)-yl)phenyl)piperidin-1-yl)methyl)piperidin-1-yl)methyl)phenyl)amino)pyrimidin-4-yl)-2-methylbenzyl)-1H-1,2,3-triazole-4-carboxamide]
16 | 44.5 | 88.5 | 99.0 | Cc1cc(-c2ccnc(Nc3ccc(CN4CCC(CN5CCC(c6ccc(NC7CCC(=O)NC7=O)cc6)CC5)CC4)cc3)n2)ccc1CNC(=O)c1cn(C(C)(C)C)nn1 (stereo not drawn) [Example 142, 1-(tert-butyl)-N-(4-(2-((4-((4-((4-(4-((2,6-dioxopiperidin-3-yl)amino)phenyl)piperidin-1-yl)methyl)piperidin-1-yl)methyl)phenyl)amino)pyrimidin-4-yl)-2-methylbenzyl)-1H-1,2,3-triazole-4-carboxamide]
17 | 74.0 | 99.5 | 100.0 | CC(C)(C)n1cc(C(=O)NCc2ccc(-c3ccnc(Nc4ccc(N5CCC(CN6CCC(c7ccc(NC8CCC(=O)NC8=O)cc7)CC6)CC5)cc4)n3)cc2CO)nn1 (stereo not drawn) [Example 143, 1-(tert-butyl)-N-(4-(2-((4-(4-((4-(4-((2,6-dioxopiperidin-3-yl)amino)phenyl)piperidin-1-yl)methyl)piperidin-1-yl)phenyl)amino)pyrimidin-4-yl)-2-(hydroxymethyl)benzyl)-1H-1,2,3-triazole-4-carbamide]
